Results reported in the NIST ThermoML archive (doi:10.1021/je100423n).

Columns and labels:
[1] = molar heat capacity at constant pressure; conditions: 101.33 kPa, Crystal
[2] = for Normal melting temperature: Crystal, DTA
[3] = Molar enthalpy of transition or fusion; conditions: Crystal; DSC

Cn1cc[n+](CCCS(=O)(=O)[O-])c1 [3-(1-methyl-1H-imidazolium-3-yl)propane-1-sulfonate]
[1]
Conditions | molar heat capacity at constant pressure [J/K/mol]
79.8 K | 86.51
81.82 K | 88.12
83.72 K | 89.95
85.64 K | 89.73
87.56 K | 93.2
89.49 K | 95.76
91.4 K | 97.65
93.32 K | 99.15
95.24 K | 102.59
97.17 K | 103.14
99.12 K | 102.97
101.85 K | 103.15
104.55 K | 104.71
106.45 K | 105.28
108.39 K | 105.7
110.33 K | 111.76
112.29 K | 111.65
114.18 K | 111.92
116.13 K | 115.43
118.1 K | 116.28
120.05 K | 114.78
121.97 K | 115.61
123.88 K | 119.92
125.82 K | 122.24
127.79 K | 123.43
129.74 K | 125.12
131.67 K | 124.91
133.59 K | 127.13
135.53 K | 131.14
137.52 K | 130.24
139.48 K | 129.74
141.43 K | 131.92
143.37 K | 134.51
145.33 K | 134.71
147.34 K | 135.23
149.32 K | 136.3
151.86 K | 137.15
154.34 K | 136.69
156.25 K | 139.22
158.24 K | 141.2
160.2 K | 143.21
162.16 K | 143.46
164.1 K | 142.79
166.03 K | 143.55
167.95 K | 145.47
169.86 K | 147.4
171.84 K | 148.97
173.85 K | 149.72
175.86 K | 149.26
177.86 K | 149.24
179.85 K | 152.16
181.84 K | 150.39
183.8 K | 154.14
185.77 K | 156.95
187.72 K | 158.74
189.66 K | 159.79
191.59 K | 160.39
193.51 K | 162.15
195.43 K | 163.86
197.4 K | 164.54
199.41 K | 165.47
201.87 K | 167.03
204.26 K | 168.03
206.21 K | 169.73
208.23 K | 170.72
210.24 K | 171.01
212.24 K | 172.7
214.24 K | 173.59
216.23 K | 174.98
218.22 K | 175.65
220.2 K | 176.48
222.16 K | 177.33
224.13 K | 178.37
226.09 K | 179.05
228.04 K | 180.76
229.98 K | 181.37
231.89 K | 182.01
233.91 K | 183.89
235.92 K | 184.74
237.85 K | 185.76
239.79 K | 186.01
242.05 K | 187.95
244.34 K | 187.83
246.29 K | 188.35
248.25 K | 190.3
250.19 K | 193.13
252.14 K | 194.47
254.07 K | 195.68
255.99 K | 196.3
257.92 K | 197.35
259.83 K | 198.68
261.74 K | 199.57
263.64 K | 200.05
265.55 K | 201.61
267.43 K | 202.34
269.32 K | 203.12
271.3 K | 205.52
273.27 K | 206.92
275.24 K | 208.19
277.3 K | 209.38
279.36 K | 210.92
281.42 K | 212.37
283.48 K | 214.25
285.52 K | 216.3
287.56 K | 218.37
289.55 K | 220.99
293.53 K | 222.83
295.51 K | 223.55
297.5 K | 224.52
299.48 K | 225.32
301.46 K | 225.86
303.43 K | 227.02
305.4 K | 226.03
307.36 K | 230.37
309.31 K | 235.18
311.27 K | 235.45
313.22 K | 236.03
315.16 K | 234.76
317.1 K | 236.03
319.02 K | 238.01
320.95 K | 239.81
322.87 K | 240.52
324.78 K | 243.51
326.69 K | 246.23
328.59 K | 244.95
330.48 K | 246.48
332.37 K | 249.83
334.35 K | 249.15
336.32 K | 251.01
338.27 K | 250.4
340.28 K | 254.4
342.23 K | 256.8
344.09 K | 255.82
345.86 K | 260.16
347.69 K | 257.32
349.6 K | 262.66
351.56 K | 261.97
353.54 K | 259.52
355.49 K | 263.89
357.41 K | 266.15
359.38 K | 268.15
361.39 K | 270.9
363.37 K | 269.56
365.32 K | 267.19
367.26 K | 270.08
369.16 K | 275.79
371.1 K | 275.4
373.06 K | 275.42
375 K | 277.14
376.96 K | 279.35
378.97 K | 280.38
380.96 K | 281.24
383.24 K | 283.27
385.55 K | 285.76
387.47 K | 284.6
389.43 K | 285.05
391.54 K | 286.7
393.53 K | 288.42
395.46 K | 290.84

Conditions | Molar enthalpy of transition or fusion [kcal/mol] | Normal melting temperature [°C]
[2] | – | 217.30
[3] | 6.78 | –

Cn1cc[n+](CCCCS(=O)(=O)[O-])c1 [4-(1-methyl-1H-imidazolium-3-yl)butane-1-sulfonate]
[1]
Conditions | molar heat capacity at constant pressure [J/K/mol]
80.21 K | 109.32
82.3 K | 110.19
84.23 K | 111.45
86.16 K | 114.23
88.12 K | 115.88
90.06 K | 117.56
92.01 K | 118.29
93.95 K | 119.31
95.89 K | 120.93
97.83 K | 122.2
99.77 K | 123.74
102.48 K | 124.48
105.12 K | 126.89
107 K | 127.99
108.91 K | 129.52
110.85 K | 130.01
112.81 K | 131.16
114.75 K | 132.61
116.67 K | 133.57
118.61 K | 135.14
120.58 K | 137.07
122.53 K | 137.67
124.46 K | 138.87
126.38 K | 139.75
128.32 K | 140.75
130.3 K | 142.4
132.25 K | 144.69
134.2 K | 145.28
136.13 K | 145.45
138.04 K | 146.27
139.98 K | 147.32
141.94 K | 148.6
143.9 K | 150.42
145.84 K | 151.09
147.76 K | 152.25
149.67 K | 153.38
152.19 K | 153.72
154.71 K | 155.47
156.63 K | 157
158.54 K | 158.94
160.5 K | 159.74
162.51 K | 160.66
164.51 K | 162.3
166.5 K | 163.42
168.48 K | 163.25
170.44 K | 164.22
172.4 K | 166.07
174.34 K | 169.35
176.29 K | 169.43
178.22 K | 169.86
180.14 K | 172.46
182.06 K | 172.94
183.96 K | 173.45
185.91 K | 174.79
187.92 K | 176.2
189.92 K | 177.8
191.9 K | 179.25
193.89 K | 180.62
195.86 K | 181.69
197.82 K | 183.02
199.78 K | 184.59
202.16 K | 186.03
204.55 K | 188.92
206.52 K | 189.41
208.48 K | 190.86
210.43 K | 192.56
212.37 K | 193.16
214.31 K | 194.31
216.23 K | 195.92
218.15 K | 196.94
220.06 K | 198.36
221.95 K | 199.16
223.84 K | 200.4
225.81 K | 201.12
227.76 K | 203.49
229.69 K | 205.7
231.68 K | 206.8
233.67 K | 207.23
235.68 K | 210
237.67 K | 211.8
239.66 K | 212.72
242.01 K | 212.87
244.29 K | 213.82
246.26 K | 215.02
248.23 K | 216.05
250.19 K | 217.52
252.24 K | 219.72
254.3 K | 221.07
256.34 K | 222.28
258.38 K | 223.16
260.41 K | 224.41
262.43 K | 226.87
264.45 K | 228.3
266.45 K | 230.63
268.46 K | 233.04
270.45 K | 233.66
272.44 K | 235.64
274.42 K | 237.81
276.4 K | 239.51
278.38 K | 241.25
280.34 K | 243.42
282.3 K | 245.29
284.25 K | 246.94
286.19 K | 249.67
288.12 K | 252.87
290.04 K | 253.95
291.95 K | 254.73
293.85 K | 255.69
295.85 K | 257.59
297.85 K | 258.49
299.75 K | 260.96
301.74 K | 261.24
303.72 K | 264.66
305.71 K | 264.36
307.78 K | 264.22
309.84 K | 267.13
311.9 K | 269.55
313.95 K | 271.31
315.99 K | 273.57
318.03 K | 274.9
320.06 K | 276.18
322.09 K | 278.14
324.11 K | 279.41
326.12 K | 281.91
328.13 K | 283.31
330.13 K | 285.02
332.13 K | 286.68
334.12 K | 289.14
336.11 K | 290.13
338.09 K | 291.64
340.07 K | 293.16
342.04 K | 294.72
344 K | 297.82
345.96 K | 300.22
347.92 K | 301.67
349.87 K | 302.61
351.81 K | 304.94
353.75 K | 306.16
355.69 K | 308.54
357.62 K | 308.82
359.54 K | 310.24
361.47 K | 312.31
363.48 K | 313.02
365.48 K | 315.16
367.47 K | 315.19
369.54 K | 318.14
371.62 K | 320.13
373.68 K | 321.14
375.73 K | 323.95
377.79 K | 324.83
379.83 K | 325.26
381.87 K | 327.6
383.9 K | 332.07
385.94 K | 334
387.96 K | 335.27
389.98 K | 335.42
391.98 K | 337.63
393.99 K | 338.39
395.97 K | 341.92
397.96 K | 344.53

Conditions | Molar enthalpy of transition or fusion [kcal/mol] | Normal melting temperature [°C]
[2] | – | 235.83
[3] | 6.01 | –

Conditions | Glass transition temperature [°C]
[2], Glass, Adiabatic calorimetry | 30.46
